SMILES strings stand for the structures.

The assay has as its target BSA glycation (Bos taurus, UniProt P02769). The experiment in a line: Determination of antiglycation activity (BSA glycation by glucose, fluorescence of glycated BSA). The class given is biochemical, bovine. To be noted: for The average concentration of AGEs in the sample at a given concentration of the drug (Δ %, M ± m): BSA 1 mg/ml, glucose 500 mM, pH 7.4, 24 hours at 60° C. As to the method:
The reaction mixture contains solutions of bovine serum albumin (1 mg/ml) and glucose (500 mM) in phosphate buffer (pH=7.4). To prevent bacterial growth, sodium azide in a final concentration of 0.02% is added to the buffer solution. All substances are dissolved in dimethyl sulfoxide (DMSO). […] All experimental samples are incubated for 24 hours at 60° C. At the end of the incubation period, specific fluorescence of glycated bovine serum albumin (BSA) is determined using an F-7000 spectrofluorimeter (Hitachi, Japan) at an excitation wavelength of 370 nm and an emission wavelength of 440 nm.
The calculation of the IC50 indicator is carried out by the method of regression analysis (Table 2).

Chain of BSA glycation (P02769 25-607): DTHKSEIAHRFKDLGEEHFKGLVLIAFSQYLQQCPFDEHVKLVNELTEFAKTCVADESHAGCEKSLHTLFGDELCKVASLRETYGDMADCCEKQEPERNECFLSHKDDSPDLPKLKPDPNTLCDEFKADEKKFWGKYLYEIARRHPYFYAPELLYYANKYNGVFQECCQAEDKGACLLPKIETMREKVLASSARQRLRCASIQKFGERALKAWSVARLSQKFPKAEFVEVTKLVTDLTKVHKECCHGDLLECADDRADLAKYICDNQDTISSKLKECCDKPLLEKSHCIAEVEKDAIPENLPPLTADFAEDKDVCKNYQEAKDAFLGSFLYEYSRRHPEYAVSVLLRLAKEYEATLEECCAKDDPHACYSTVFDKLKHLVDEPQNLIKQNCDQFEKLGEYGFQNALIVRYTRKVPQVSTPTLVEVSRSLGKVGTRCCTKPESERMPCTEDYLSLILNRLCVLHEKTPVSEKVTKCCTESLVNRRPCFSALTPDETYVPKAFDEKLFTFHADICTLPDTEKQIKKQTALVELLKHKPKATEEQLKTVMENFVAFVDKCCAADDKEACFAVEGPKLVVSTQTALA

By IC50 is commonly meant the concentration that inhibits the measured activity by half. For `N=C(N)NN` [Aminoguanidine, aminoguanidine], the concentration for half-maximal inhibition (IC50) (calculated by regression analysis) is 765 µM. Besides, the “The average concentration of AGEs in the sample at a given concentration of the drug (Δ %, M ± m)” value is reported as 50.25 ± 1.08 Δ % (drug concentration 3*10^−4 mol); 19.14 ± 2.24 Δ % (drug concentration 3*10^−5 mol); 58.08 ± 0.72 Δ % (drug concentration 10^−3 mol); 38.75 ± 1.52 Δ % (drug concentration 10^−4 mol); 3.53 ± 2.31 Δ % (drug concentration 10^−5 mol).

These data come from US20230210871A1 (THE LIMITED COMPANY RESEARCH AND DEVELOPMENT COMPANY …, priority 2017, published 2023).
